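Results reflect a 48-hour exposure of cells in 96-well plates to compound at five concentrations. At the TGI there is no net growth.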
Assays:
Assay in all cases: DTP human tumour cell line panel, 48 h
[1] = test system: KM12 colon
[2] = test system: EKVX NSCLC
[3] = test system: SK-MEL-2 melanoma
[4] = test system: TK-10 renal
[5] = test system: RXF 393 renal
[6] = test system: MCF7 breast
[7] = test system: CCRF-CEM leukemia
[8] = test system: SW-620 colon
[9] = test system: NCI-H23 lung
[10] = test system: M14 melanoma
[11] = test system: SK-MEL-5 melanoma
[12] = test system: SNB-75 CNS
[13] = test system: MDA-MB-231 breast
[14] = test system: ACHN renal
[15] = test system: SR leukemia
[16] = test system: NCI-H522 lung
[17] = test system: OVCAR-8 ovarian
[18] = test system: DU-145 prostate
[19] = test system: LOX IMVI melanoma
[20] = test system: UO-31 renal
[21] = test system: U251 CNS
[22] = test system: HOP-92 NSCLC
[23] = test system: PC-3 prostate
[24] = test system: OVCAR-4 ovarian
[25] = test system: IGROV1 ovarian
[26] = test system: MDA-N
[27] = test system: HL-60(TB) leukemia
[28] = test system: K-562 leukemia
[29] = test system: SNB-19 CNS
[30] = test system: SF-295 CNS
[31] = test system: CAKI-1 renal
[32] = test system: A549 NSCLC
[33] = test system: NCI-H460 lung
[34] = test system: HOP-62 NSCLC
[35] = test system: SF-539 CNS
[36] = test system: NCI/ADR-RES ovarian
[37] = test system: HCC-2998 colon
[38] = test system: MOLT-4 leukemia
[39] = test system: MALME-3M melanoma
[40] = test system: SK-OV-3 ovarian
[41] = test system: 786-0 renal
[42] = test system: COLO 205 colon
[43] = test system: SK-MEL-28 melanoma
[44] = test system: T-47D breast
[45] = test system: UACC-257 melanoma
[46] = test system: A498 renal
[47] = test system: SN12C renal
[48] = test system: RPMI-8226 leukemia
[49] = test system: SF-268 CNS
[50] = test system: HT29 colon
[51] = test system: UACC-62 melanoma
[52] = test system: HS 578T breast
[53] = test system: HCT-15 colon
[54] = test system: OVCAR-3 ovarian
[55] = test system: NCI-H226 lung
[56] = test system: HCT-116 colon

Measured: TGI

c1ccc(CSC2(SCc3ccccc3)CCCCC2)cc1
> 10 µM: all assays above

From PubChem BioAssay (NCI)
